Experimental data reported in PubChem BioAssay (NCI).
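Assay format: 96-well plates, 48-hour exposure. At the GI50, growth is halved. At the TGI there is no net growth.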

How the values were obtained:
Assay in all cases: NCI-60 cell line screen, 48 h
OVCAR-4 ovarian = test system: OVCAR-4 ovarian
NCI/ADR-RES ovarian = test system: NCI/ADR-RES ovarian
NCI-H460 lung = test system: NCI-H460 lung
SK-MEL-28 melanoma = test system: SK-MEL-28 melanoma
MDA-MB-435 = test system: MDA-MB-435
SF-268 CNS = test system: SF-268 CNS
BT-549 breast = test system: BT-549 breast
HCT-116 colon = test system: HCT-116 colon
K-562 leukemia = test system: K-562 leukemia
UO-31 renal = test system: UO-31 renal
HCT-15 colon = test system: HCT-15 colon
UACC-257 melanoma = test system: UACC-257 melanoma
PC-3 prostate = test system: PC-3 prostate
SK-MEL-2 melanoma = test system: SK-MEL-2 melanoma
SF-539 CNS = test system: SF-539 CNS
UACC-62 melanoma = test system: UACC-62 melanoma
MOLT-4 leukemia = test system: MOLT-4 leukemia
SF-295 CNS = test system: SF-295 CNS
OVCAR-8 ovarian = test system: OVCAR-8 ovarian
MDA-MB-231 breast = test system: MDA-MB-231 breast
A498 renal = test system: A498 renal
MCF7 breast = test system: MCF7 breast
M14 melanoma = test system: M14 melanoma
EKVX NSCLC = test system: EKVX NSCLC
CCRF-CEM leukemia = test system: CCRF-CEM leukemia
HOP-92 NSCLC = test system: HOP-92 NSCLC
SK-MEL-5 melanoma = test system: SK-MEL-5 melanoma
NCI-H226 lung = test system: NCI-H226 lung
TK-10 renal = test system: TK-10 renal
CAKI-1 renal = test system: CAKI-1 renal
SNB-19 CNS = test system: SNB-19 CNS
786-0 renal = test system: 786-0 renal
ACHN renal = test system: ACHN renal
A549 NSCLC = test system: A549 NSCLC
KM12 colon = test system: KM12 colon
RPMI-8226 leukemia = test system: RPMI-8226 leukemia
LOX IMVI melanoma = test system: LOX IMVI melanoma
OVCAR-5 ovarian = test system: OVCAR-5 ovarian
T-47D breast = test system: T-47D breast
U251 CNS = test system: U251 CNS
SW-620 colon = test system: SW-620 colon
NCI-H23 lung = test system: NCI-H23 lung
HCC-2998 colon = test system: HCC-2998 colon
COLO 205 colon = test system: COLO 205 colon
DU-145 prostate = test system: DU-145 prostate
SK-OV-3 ovarian = test system: SK-OV-3 ovarian
HS 578T breast = test system: HS 578T breast
HT29 colon = test system: HT29 colon
SNB-75 CNS = test system: SNB-75 CNS
MALME-3M melanoma = test system: MALME-3M melanoma
HOP-62 NSCLC = test system: HOP-62 NSCLC
SN12C renal = test system: SN12C renal
IGROV1 ovarian = test system: IGROV1 ovarian
HL-60(TB) leukemia = test system: HL-60(TB) leukemia
RXF 393 renal = test system: RXF 393 renal
NCI-H522 lung = test system: NCI-H522 lung
OVCAR-3 ovarian = test system: OVCAR-3 ovarian

Compound: O=C1Cc2c([nH]c3ccc(Br)cc23)-c2cc(Br)ccc2N1
- TGI (OVCAR-4 ovarian): > 100 µM
- TGI (NCI/ADR-RES ovarian): > 100 µM
- TGI (NCI-H460 lung): > 100 µM
- TGI (SK-MEL-28 melanoma): > 100 µM
- TGI (MDA-MB-435): > 100 µM
- TGI (SF-268 CNS): > 100 µM
- TGI (BT-549 breast): > 100 µM
- TGI (K-562 leukemia): > 100 µM
- TGI (UO-31 renal): > 100 µM
- TGI (HCT-15 colon): > 100 µM
- TGI (UACC-257 melanoma): > 100 µM
- TGI (PC-3 prostate): > 100 µM
- TGI (SK-MEL-2 melanoma): > 100 µM
- TGI (SF-539 CNS): > 100 µM
- TGI (UACC-62 melanoma): > 100 µM
- TGI (MOLT-4 leukemia): > 100 µM
- TGI (SF-295 CNS): > 100 µM
- TGI (OVCAR-8 ovarian): > 100 µM
- TGI (MDA-MB-231 breast): > 100 µM
- TGI (A498 renal): > 100 µM
- TGI (MCF7 breast): > 100 µM
- TGI (M14 melanoma): > 100 µM
- TGI (EKVX NSCLC): > 100 µM
- TGI (CCRF-CEM leukemia): > 100 µM
- TGI (HOP-92 NSCLC): > 100 µM
- TGI (SK-MEL-5 melanoma): > 100 µM
- TGI (NCI-H226 lung): > 100 µM
- TGI (TK-10 renal): > 100 µM
- TGI (CAKI-1 renal): > 100 µM
- TGI (SNB-19 CNS): > 100 µM
- TGI (786-0 renal): > 100 µM
- TGI (ACHN renal): > 100 µM
- TGI (A549 NSCLC): > 100 µM
- TGI (KM12 colon): > 100 µM
- TGI (RPMI-8226 leukemia): > 100 µM
- TGI (LOX IMVI melanoma): > 100 µM
- TGI (OVCAR-5 ovarian): > 100 µM
- TGI (T-47D breast): > 100 µM
- TGI (U251 CNS): > 100 µM
- TGI (SW-620 colon): > 100 µM
- TGI (NCI-H23 lung): > 100 µM
- TGI (HCC-2998 colon): > 100 µM
- TGI (COLO 205 colon): > 100 µM
- TGI (DU-145 prostate): > 100 µM
- TGI (SK-OV-3 ovarian): > 100 µM

Compound: NC(N)=NCCCn1c2c(c3ccccc3c1=O)C(=O)c1ccccc1-2
- GI50 (OVCAR-4 ovarian): 55.6 µM
- TGI (OVCAR-4 ovarian): > 100 µM
- GI50 (NCI/ADR-RES ovarian): 38.6 µM
- TGI (NCI/ADR-RES ovarian): > 100 µM
- GI50 (NCI-H460 lung): 15.3 µM
- TGI (NCI-H460 lung): > 100 µM
- GI50 (HS 578T breast): 2.67 µM
- TGI (HS 578T breast): 25.7 µM
- GI50 (HT29 colon): 32.6 µM
- TGI (HT29 colon): > 100 µM
- GI50 (SK-MEL-28 melanoma): 28.6 µM
- TGI (SK-MEL-28 melanoma): > 100 µM
- GI50 (MDA-MB-435): 25.9 µM
- TGI (MDA-MB-435): 71.5 µM
- GI50 (SF-268 CNS): 1.53 µM
- TGI (SF-268 CNS): 9.45 µM
- GI50 (BT-549 breast): 2.28 µM
- TGI (BT-549 breast): 5.51 µM
- GI50 (HCT-116 colon): 22.3 µM
- TGI (HCT-116 colon): 45.6 µM
- GI50 (K-562 leukemia): 11.6 µM
- TGI (K-562 leukemia): 29.5 µM
- GI50 (SNB-75 CNS): 5.69 µM
- TGI (SNB-75 CNS): 26.4 µM
- GI50 (MALME-3M melanoma): 18.6 µM
- TGI (MALME-3M melanoma): 45.1 µM
- GI50 (PC-3 prostate): 52.1 µM
- TGI (PC-3 prostate): > 100 µM
- GI50 (SK-MEL-2 melanoma): 19.5 µM
- TGI (SK-MEL-2 melanoma): 33.6 µM
- GI50 (SF-539 CNS): 0.369 µM
- TGI (SF-539 CNS): 2.14 µM
- GI50 (UACC-62 melanoma): 10.9 µM
- TGI (UACC-62 melanoma): 25.7 µM
- GI50 (MOLT-4 leukemia): 2.65 µM
- TGI (MOLT-4 leukemia): 18.8 µM
- GI50 (SF-295 CNS): 1.66 µM
- TGI (SF-295 CNS): 7.72 µM
- GI50 (OVCAR-8 ovarian): 36 µM
- TGI (OVCAR-8 ovarian): > 100 µM
- GI50 (HOP-62 NSCLC): 0.695 µM
- TGI (HOP-62 NSCLC): 3.64 µM
- GI50 (MDA-MB-231 breast): 15.8 µM
- TGI (MDA-MB-231 breast): 46.7 µM
- GI50 (SN12C renal): 0.229 µM
- TGI (SN12C renal): 0.572 µM
- GI50 (MCF7 breast): 7.27 µM
- TGI (MCF7 breast): 25.1 µM
- GI50 (M14 melanoma): 18.7 µM
- TGI (M14 melanoma): 34.5 µM
- GI50 (EKVX NSCLC): 16.6 µM
- TGI (EKVX NSCLC): 58.5 µM
- GI50 (IGROV1 ovarian): 10.6 µM
- TGI (IGROV1 ovarian): 22.6 µM
- GI50 (CCRF-CEM leukemia): 19.9 µM
- TGI (CCRF-CEM leukemia): > 100 µM
- GI50 (HOP-92 NSCLC): 3.2 µM
- TGI (HOP-92 NSCLC): 47.5 µM
- GI50 (HL-60(TB) leukemia): 23.9 µM
- TGI (HL-60(TB) leukemia): 81.3 µM
- GI50 (SK-MEL-5 melanoma): 15.1 µM
- TGI (SK-MEL-5 melanoma): 29.5 µM
- GI50 (TK-10 renal): 29.5 µM
- TGI (TK-10 renal): 98.3 µM
- GI50 (CAKI-1 renal): 20.3 µM
- TGI (CAKI-1 renal): 49 µM
- GI50 (SNB-19 CNS): 18.5 µM
- TGI (SNB-19 CNS): 98.2 µM
- GI50 (786-0 renal): 0.681 µM
- TGI (786-0 renal): 3.29 µM
- GI50 (ACHN renal): 18 µM
- TGI (ACHN renal): 35.2 µM
- GI50 (A549 NSCLC): 27.1 µM
- TGI (A549 NSCLC): > 100 µM
- GI50 (KM12 colon): 21.9 µM
- TGI (KM12 colon): 59.1 µM
- GI50 (RPMI-8226 leukemia): 42.7 µM
- TGI (RPMI-8226 leukemia): > 100 µM
- GI50 (LOX IMVI melanoma): 14.4 µM
- TGI (LOX IMVI melanoma): 28.8 µM
- GI50 (OVCAR-5 ovarian): 25.7 µM
- TGI (OVCAR-5 ovarian): 94.6 µM
- GI50 (RXF 393 renal): 7.82 µM
- TGI (RXF 393 renal): 42.4 µM
- GI50 (T-47D breast): 22.9 µM
- TGI (T-47D breast): 66.6 µM
- GI50 (U251 CNS): 0.223 µM
- TGI (U251 CNS): 0.637 µM
- GI50 (SW-620 colon): 14.5 µM
- TGI (SW-620 colon): 31 µM
- GI50 (HCC-2998 colon): 3.6 µM
- TGI (HCC-2998 colon): 15.8 µM
- GI50 (COLO 205 colon): 21.2 µM
- TGI (COLO 205 colon): 79.7 µM
- GI50 (DU-145 prostate): 7.59 µM
- TGI (DU-145 prostate): 22.9 µM
- GI50 (SK-OV-3 ovarian): 34.2 µM
- TGI (SK-OV-3 ovarian): > 100 µM
- GI50 (NCI-H522 lung): 2.45 µM
- TGI (NCI-H522 lung): 11.1 µM
- GI50 (OVCAR-3 ovarian): 18.3 µM
- TGI (OVCAR-3 ovarian): 45.4 µM
